Reference: US20210000917A1, “METHODS AND COMPOSITION FOR THE TREATMENT OF ALLERGIC ASTHMA” (INSERM (Institut National de la Santé et de la Recherche …, priority 2018, published 2021)

How the values were obtained:
[1] = cited from earlier work; for in vivo allergenic activity and allergenicity: compared with the Derp 2 allergen; for immunogenicity: in vivo
[2] = tested on: mouse model of HDM-induced asthma; test: Airway hyperresponsiveness measurement (flexiVent, methacholine) in mouse model of HDM-induced asthma; format: in vivo, BALB/c female mice; conditions: for respiratory function (airway resistances and elastance to increasing doses of methacholine): 20 μg peptide in Alum subcutaneously on day 30 and day 34, measured day 38, vs asthmatic-like (HDM) mice
Procedure: (§1) BALB/c female mice aged 6 to 8 weeks were purchased from Charles River Breeding Laboratories and used for all experiments. The animals were housed in UTE IRS-UN platform (Nantes, France). The mice were maintained under specific pathogen-free, temperature-controlled conditions under a strict 12-hour light-dark cycle and were given free access to food and water. The mice were sensitized on days 0, 7, 14 and 21 by percutaneous application of 500 μg of total extract of Dermatophagoïdes farinae (HDM) (Stallergenes, Antony, France) in 20 μl of dimethylsulfoxide (Sigma- Aldrich, St Louis, Mo.) on the ears without any synthetic adjuvant. The mice were challenged intranasally with 250 μg of HDM (House Dust Mite) in 40 μl of sterile PBS on day 27, 28 and 29 to induce asthma and again on days 35, 36 and 37 to induce asthma exacerbation. Animals were anesthetized with 100 μg of xylazine (ROMPUN 2%, Bayer, Lyon, France, 15 mg/kg) intraperitoneally and 100 μl of ketamine (IMALGENE100, Merial, Lyon, France, 80 mg/kg) for both sensitizations and challenges. Mice were sacrified by sublethal injection of dolethal (vetoquinol) on day 39 (FIG. 1A). For dynamic lung resistance measurements, mice were anesthetized with 200 μl of a ketamine-xylazine mix and paralyzed with 100 μl of rocuronium bromide (ESMERON, Organon, Kloosterstraat, The Netherlands, 10 mg/ml) intraperitoneally.
(§2) Derivative peptide (Derp 2.1) was purified as previously described by Chen et al. 1Peptide was injected on day 30 after de third challenge and on day 34 before the fourth challenge. Derp 2.1 was solubilized with sterile PBS to a final concentration of 100 μg/ml. pproximately 200 μl of a solution of Alum (Imject Alum, Thermo Scientific) containing 20 μg of the peptide was injected subcutaneously in the neck of the mice.
Dynamic lung resistances were measured using a flexiVent (SCIREQ, Emka). Mice were anesthetized and connected via an endotracheal cannula to a flexiVent system. […] Airway resistances wee continuously monitored and recorded according to manufacturer's instructions.

[3] = tested on: mouse model of HDM-induced asthma; test: BAL cell counts by flow cytometry in mouse model of HDM-induced asthma; format: in vivo, BALB/c female mice; conditions: 20 μg peptide in Alum subcutaneously on day 30 and day 34, BAL day 38
Procedure: as §1, with “Mice were sacrified by sublethal injection of dolethal (vetoquinol) on day 39 (FIG. 1A).” left out
as §2
One milliliter of sterile PBS was administered to mice through a flexible catheter. Cells and supernatants from the removed fluid were separated by centrifugation. The total cell number was determined by using flow cytometry (see below). Supernatants were stored at −20° C.
For analysis of BAL cells, the following antibodies were used: CD3 PE-Cy7, F4/80 FITC (eBioscience); CCR3 APC (R&D Systems) and Ly6G-PerCP Cy5.5 (BD Biosciences). Stained cells resuspended in PBS were acquired on a BD LSR II (BD Biosciences) and were analyzed on FlowJo software (Tree Star). To study lung, mediastinal lymph nodes (mLN) and spleen T-cell responses, these organs were removed and mechanically disrupted in RPMI 1640 media. Cells were passed through a 40 μm filter. Red blood cells from lung and spleen were lysed with a solution of Red Blood Cells lysis (Sigma Aldrich). Cells from mLN, lung and spleen were transferred to a 96-wells round-bottom plate and were stimulated for 5 hours with a mix containing phorbol 12-myristate 13-acetate (50 ng/ml) and ionomycin (500 ng/ml; Sigma-Aldrich) together. […]

[4] = tested on: Der p 2-specific IgE; test: Der p 2-specific IgE level in mouse model of HDM-induced asthma; format: in vivo, BALB/c female mice; conditions: 20 μg peptide in Alum subcutaneously on day 30 and day 34; FIG. 1E serum level
Procedure: as §1, with “intraperitoneally. […]” for “intraperitoneally.”

[5] = tested on: mouse model of HDM-induced asthma; test: Treg and natural killer cells by flow cytometry in mouse model of HDM-induced asthma; format: in vivo, BALB/c female mice; conditions: 20 μg peptide in Alum subcutaneously on day 30 and day 34
Procedure: as §1, with “Mice were sacrified by sublethal injection of dolethal (vetoquinol) on day 39 (FIG. 1A). For dynamic lung resistance measurements, mice were anesthetized with 200 μl of a ketamine-xylazine mix and paralyzed with 100 μl of rocuronium bromide (ESMERON, Organon, Kloosterstraat, The Netherlands, 10 mg/ml) intraperitoneally.” left out
For analysis of BAL cells, the following antibodies were used: CD3 PE-Cy7, F4/80 FITC (eBioscience); CCR3 APC (R&D Systems) and Ly6G-PerCP Cy5.5 (BD Biosciences). Stained cells resuspended in PBS were acquired on a BD LSR II (BD Biosciences) and were analyzed on FlowJo software (Tree Star). […]

Molecule	in vivo allergenic activity and allergenicity [1]	immunogenicity [1]	respiratory function (airway resistances and elastance to increasing doses of methacholine) [2]	respiratory function (airway resistances and elastance to increasing doses of methacholine) ([2]; listed as derp2.1)	airway hyperresponsiveness and asthma exacerbations ([2]; summary statement comparing Derp 2.1 with Der p 2.2)	eosinophils in BAL [3]	neutrophils in BAL [3]	eosinophils in BAL ([3]; listed as derp2.1)	neutrophils in BAL ([3]; listed as derp2.1)	Derp2 specific IgE [4]	regulators lymphocytes T (Treg cells) ([5]; FIG. 1F frequency of lung Treg cells)	natural killer cells ([5]; FIG. 1G number of lung natural killer cells)
Derp2.1: polypeptide having a sequence consisting of amino acids 18 to 70 of SEQ ID NO: 1 (Der p 2 fragment); rDer p 2.1 is the recombinant form from E. coli (DQVDVKDCANHEIKKVLVPGCHGSEPCIIHRGKPFQLEAVFEANQNTKTAKIE; listed as Dermatophagoides pteronyssinus)	less in vivo allergenic activity and allergenicity than the Derp 2 allergen	preserved immunogenicity	improved	respiratory improvement	enables to decrease airway hyperresponsiveness and prevent asthma exacerbations	reduced	reduced	reduction	reduction	reduction	increase	reduction
Der p 2.2: polypeptide consisting of the amino acid sequence 71 to 146 of SEQ ID NO: 1 (Der p 2 fragment) (protein, listed as Dermatophagoides pteronyssinus) IKASIDGLEVDVPGIDPNACHYMKCPLVKGQQYDIKYTWNVPKIAPKSENVVVTVKVMGDDGVLACAIATHAKIRD	less in vivo allergenic activity and allergenicity than the Derp 2 allergen	preserved immunogenicity										
